Test results from article PMC8286840, “Identifying SARS-CoV-2 antiviral compounds by screening for small molecule inhibitors of Nsp3 papain-like protease” (Biochemical Journal, 2021).
Where a name gives a salt, the structure may show the parent alone. Read-outs that look alike come from different tables or passages of the source.

Legend:
[1] = biological target: T1, SARS-CoV-2 PLpro (nsp3 1564–1878) (Severe acute respiratory syndrome coronavirus 2, UniProt P0DTD1); assay: biochemical; design: FRET-quenched peptide (Pro3) cleavage by PLpro, 10 min pre-incubation, slope over 20 min, normalised to no-compound control; conditions: low concentration screen, read-out: % of control remaining
[2] = biological target: T1, SARS-CoV-2 PLpro (nsp3 1564–1878); assay: biochemical; design: FRET-quenched peptide (Pro3) cleavage by PLpro, 10 min pre-incubation, slope over 20 min, normalised to no-compound control; conditions: high concentration screen, read-out: % of control remaining

COc1ccc(C[C@H](C)NC[C@@H](O)c2ccc(O)c(NC=O)c2)cc1 [Formoterol (Fumarate)]
remaining activity at 1.25 µM ([1]; Well no.=6413): 101%
remaining activity at 3.75 µM ([2]; Well no.=6413): 95.1%

COc1cccc2c1C(=O)c1c(O)c3c(c(O)c1C2=O)C[C@@](O)(C(=O)CO)C[C@@H]3O[C@H]1C[C@H](N)[C@@H](O)[C@H](C)O1 [Epirubicin HCl]
remaining activity at 1.25 µM ([1]; Well no.=5141): 106%
remaining activity at 3.75 µM ([2]; Well no.=5141): 107%

CN(C)c1cccc(-c2c3c(=O)n(-c4ccccc4Cl)[nH]c3cc(=O)n2C)c1 [GKT137831]
remaining activity at 1.25 µM ([1]; Well no.=9078): 96.8%
remaining activity at 3.75 µM ([2]; Well no.=9078): 89.9%

CC(C)c1nc(N(C)S(C)(=O)=O)nc(-c2ccc(F)cc2)c1/C=C/[C@@H](O)C[C@@H](O)CC(=O)O [Rosuvastatin Calcium]
remaining activity at 1.25 µM ([1]; Well no.=8240): 96.8%
remaining activity at 3.75 µM ([2]; Well no.=8240): 93.8%

O=C(O)Cn1c2c(c3cc(F)ccc31)CN(C(=O)c1cccc3ccccc13)CC2 [Setipiprant]
remaining activity at 1.25 µM ([1]; Well no.=7707): 99.9%
remaining activity at 3.75 µM ([2]; Well no.=7707): 103%

CC(C)c1cc(-c2n[nH]c(=O)n2-c2ccc3c(ccn3C)c2)c(O)cc1O [Ganetespib (STA-9090)]
remaining activity at 1.25 µM ([1]; Well no.=9028): 85.9%
remaining activity at 3.75 µM ([2]; Well no.=9028): 86.1%

Nc1ncn([C@@H]2O[C@H](CO)[C@@H](O)[C@H]2O)c(=O)n1 [5-azacytidine]
remaining activity at 1.25 µM ([1]; Well no.=155): 95.5%
remaining activity at 3.75 µM ([2]; Well no.=155): 96.6%

Cn1cnc2c1c(=O)[nH]c(=O)n2C [Theobromine]
remaining activity at 1.25 µM ([1]; Well no.=1479): 96.7%
remaining activity at 1.25 µM ([1]; Well no.=3491): 95.7%
remaining activity at 1.25 µM ([1]; Well no.=6387): 101%
remaining activity at 1.25 µM ([1]; Well no.=8067): 106%
remaining activity at 3.75 µM ([2]; Well no.=1479): 97.3%
remaining activity at 3.75 µM ([2]; Well no.=3491): 96.4%
remaining activity at 3.75 µM ([2]; Well no.=6387): 102%
remaining activity at 3.75 µM ([2]; Well no.=8067): 104%

CON(C)C(=O)[C@H](O)[C@H](Cc1ccccc1)NC(=O)c1cc2cc(Cl)ccc2[nH]1 [N-{(1S,2R)-1-benzyl-2-hydroxy-3-[methoxy(methyl)amino]-3-oxopropyl}-5-chloro-1H-indole-2-carboxamide]
remaining activity at 1.25 µM ([1]; Well no.=6057): 100%
remaining activity at 3.75 µM ([2]; Well no.=6057): 97.9%

O=C(O)CCCCCCCCCC(=O)O [Undecanedioic acid]
remaining activity at 1.25 µM ([1]; Well no.=6785): 102%
remaining activity at 3.75 µM ([2]; Well no.=6785): 99.4%

O=c1cc(N2CCNCC2)oc2c(-c3ccccc3)cccc12 [LY 303511]
remaining activity at 1.25 µM ([1]; Well no.=2467): 102%
remaining activity at 3.75 µM ([2]; Well no.=2467): 106%

COC(=O)c1sccc1S(=O)(=O)Nc1ccc(Nc2ccccc2)cc1OC [GSK0660]
remaining activity at 1.25 µM ([1]; Well no.=5869): 111%
remaining activity at 3.75 µM ([2]; Well no.=5869): 109%

CN1CCN2c3ccccc3Cc3ccccc3C2C1 (stereo not drawn) [Mianserin hydrochloride]
remaining activity at 1.25 µM ([1]; Well no.=874): 107%
remaining activity at 3.75 µM ([2]; Well no.=874): 106%

O=C(c1ccc(C(=O)N2CCC(N3CCCC3)CC2)c(Nc2ccccc2)c1)N1CCC(N2CCCC2)CC1 [UNC1215]
remaining activity at 1.25 µM ([1]; Well no.=5417): 98.6%
remaining activity at 3.75 µM ([2]; Well no.=5417): 100%

CCn1c(-c2nonc2N)nc2c(C#CC(C)(C)O)ncc(OC[C@H]3CCCNC3)c21 [GSK690693]
remaining activity at 1.25 µM ([1]; Well no.=3041): 97.7%
remaining activity at 3.75 µM ([2]; Well no.=3041): 94.4%

CCCCCCCCCCCCCCCCOP(=O)([O-])OCC[N+](C)(C)C [Miltefosine]
remaining activity at 1.25 µM ([1]; Well no.=1767): 101%
remaining activity at 3.75 µM ([2]; Well no.=1767): 100%

Nc1nc(Cl)nc2c1ncn2[C@@H]1O[C@H](COP(=O)(O)OP(=O)(O)OP(=O)(O)O)[C@H](O)C1O (stereo partly drawn) [2-Chloroadenosine triphosphate tetrasodium]
remaining activity at 1.25 µM ([1]; Well no.=535): 100%
remaining activity at 3.75 µM ([2]; Well no.=535): 102%

CS(=O)(=O)n1cc2c(n1)CN([C@H]1CO[C@H](c3cc(F)ccc3F)[C@@H](N)C1)C2 [Omarigliptin (MK-3102)]
remaining activity at 1.25 µM ([1]; Well no.=8824): 98.1%
remaining activity at 3.75 µM ([2]; Well no.=8824): 96.5%

CCc1ccn2ccnc2c1N1CCCN([C@@H](CC(N)=O)C2CCN(C(=O)[C@H]3C[C@@H]4CC[C@H]3O4)CC2)CC1 [CXCR7 modulator 2]
remaining activity at 1.25 µM ([1]; Well no.=8557): 112%
remaining activity at 3.75 µM ([2]; Well no.=8557): 108%

CN1CCc2cc(Cl)c(O)cc2[C@@H](c2ccccc2)C1 [R(+)-SCH-23390 hydrochloride]
remaining activity at 1.25 µM ([1]; Well no.=638): 96.8%
remaining activity at 3.75 µM ([2]; Well no.=638): 98%

NC(=O)NS(=O)(=O)c1ccc(N)cc1 [Sulfacarbamide]
remaining activity at 1.25 µM ([1]; Well no.=7502): 96.2%
remaining activity at 3.75 µM ([2]; Well no.=7502): 98.8%

O=C1/C(=C/c2ccc(O)c(Br)c2)CN(Cc2ccccc2)C/C1=C\c1ccc(O)c(Br)c1 [CARM1-IN-1]
remaining activity at 1.25 µM ([1]; Well no.=8030): 94.4%
remaining activity at 3.75 µM ([2]; Well no.=8030): 88%

COc1cc2c(N3CCN(C(=O)Nc4ccc(OC(C)C)cc4)CC3)ncnc2cc1OCCCN1CCCCC1 [Tandutinib]
remaining activity at 1.25 µM ([1]; Well no.=2851): 104%
remaining activity at 3.75 µM ([2]; Well no.=2851): 104%

C[C@H]1O[C@@H](n2cnc3c(N)ncnc32)[C@H](O)[C@@H]1O [5'-Deoxyadenosine]
remaining activity at 1.25 µM ([1]; Well no.=7251): 97.6%
remaining activity at 1.25 µM ([1]; Well no.=7904): 91.4%
remaining activity at 3.75 µM ([2]; Well no.=7251): 99%
remaining activity at 3.75 µM ([2]; Well no.=7904): 94.7%

CCn1c(=O)c2c(C)c(C(=O)N3CCC(O)CC3)sc2n(CCC(F)(F)F)c1=O [BAY-545]
remaining activity at 1.25 µM ([1]; Well no.=8597): 106%
remaining activity at 3.75 µM ([2]; Well no.=8597): 104%

CC(C)c1onc(-c2c(Cl)cccc2Cl)c1COc1ccc(/C=C/c2cccc(C(=O)O)c2)c(Cl)c1 [GW4064]
remaining activity at 1.25 µM ([1]; Well no.=5314): 101%
remaining activity at 3.75 µM ([2]; Well no.=5314): 98.2%

O=c1n(CCCN2CCN(c3cccc(Cl)c3)CC2)nc2ccccn12 [Trazodone (hydrochloride)]
remaining activity at 1.25 µM ([1]; Well no.=7432): 109%
remaining activity at 3.75 µM ([2]; Well no.=7432): 111%

c1cc(CN2CCCNCCNCCCNCC2)ccc1CN1CCCNCCNCCCNCC1 [Plerixafor]
remaining activity at 1.25 µM ([1]; Well no.=6893): 101%
remaining activity at 1.25 µM ([1]; Well no.=8356): 91.6%
remaining activity at 1.25 µM ([1]; Well no.=8751): 98.3%
remaining activity at 3.75 µM ([2]; Well no.=8356): 92.1%
remaining activity at 3.75 µM ([2]; Well no.=8751): 99.2%

CC(/C=C1\SC(=S)N(CC(=O)O)C1=O)=C\c1ccccc1 [Epalrestat]
remaining activity at 1.25 µM ([1]; Well no.=5046): 100%
remaining activity at 3.75 µM ([2]; Well no.=5046): 104%

CCCNCC(O)COc1ccccc1C(=O)CCc1ccccc1 (stereo not drawn) [Propafenone hydrochloride]
remaining activity at 1.25 µM ([1]; Well no.=956): 101%
remaining activity at 3.75 µM ([2]; Well no.=956): 101%

CC[C@H](C)/C=C(C)/C=C/C1=CC2=C(Cl)C(=O)[C@](C)(OC(C)=O)C(=O)C2=CO1 [Sclerotiorin]
remaining activity at 1.25 µM ([1]; Well no.=3604): 100%
remaining activity at 3.75 µM ([2]; Well no.=3604): 98.6%

NC(=O)c1cccc(N)c1 [3-aminobenzamide]
remaining activity at 1.25 µM ([1]; Well no.=199): 101%
remaining activity at 3.75 µM ([2]; Well no.=199): 98.8%
